Consider two compounds from patent EP4745124A1, “NAPHTHALIMIDE-BASED CORONAVIRUS PAPAIN-LIKE PROTEASE INHIBITOR” (Guangzhou National Laboratory, priority 2023, dated 2025).

In one data set the test system is SARS-CoV-2 WT. Description: Anti-viral activity evaluation in SARS-CoV-2 infected Vero-E6 cell model (qRT-PCR viral copy numbers). In kind it is cell-based. The conditions noted are these: Severe acute respiratory syndrome coronavirus 2, Vero C1008, 48 h, read-out: SARS-Cov-2 WT EC50 (µM).
For a further data set, the system named is SARS-Cov-2 XBB.1. Description: microbe, parasite or virus in culture. It is filed as cell-based. The conditions noted are these: Severe acute respiratory syndrome coronavirus 2, Vero C1008, 48 h, read-out: SARS-Cov-2 XBB.1 EC50 (µM).
The test system of a further data set is SARS-Cov-2 Omicron BA.5. The experiment in a line: microbe, parasite or virus in culture. It is filed as cell-based. The conditions noted are these: Severe acute respiratory syndrome coronavirus 2, Vero C1008, 48 h, read-out: SARS-Cov-2 Omicron BA.5 EC50 (µM).
Data set [1] is described as follows: Routine pharmacokinetic (PK) test in rats, oral gavage. It is filed as in vivo. The conditions noted are these: rat, 5 mg/kg, plasma. The method, then:
Solvent formula: 10% DMSO, 5% ethanol, 5% Cremophor EL and 80% deionized water. […] Measure 1.316 mL of DMSO, vortex for 1 minute, and sonicate for 10 minutes to obtain a 5 mg/mL clear DMSO stock solution.
Take 1 mL of 5 mg/mL DMSO stock solution, add 0.5 mL of ethanol, vortex for 1 minute, add 0.5 mL of Cremophor EL, vortex for 1 minute, and finally add 8 mL of deionized water, vortex for 1 minute to obtain a clear administration formulation with a concentration of 0.5 mg/mL. Prepare it immediately before use and store it at room temperature after preparation.
Oral gavage administration, with the route of administration consistent with the intended clinical route of administration.
Oral sampling: There were a total of 8 collection time points, at 0.25, 0.5, 1, 2, 4, 6, 8 and 24 hours after administration.
Plasma: After euthanasia of the animals, blood was drawn by puncture. The samples were placed in tubes containing K2-EDTA and stored on ice until centrifugation. Within 1 hour after blood collection, the samples were centrifuged at 6800 g for 6 minutes at 2-8°C to obtain plasma samples, which were then frozen and stored at approximately -80°C.
Analyze the compound. While analyzing the sample, utilize quality control samples to evaluate the intra-day accuracy of the analytical batch.
When calculating pharmacokinetic parameters, the BLQ concentration data before the time to reach peak concentration (Tmax) in the oral administration group are calculated as "0", and BLQ concentration data after Tmax are excluded from all calculations.
The non-compartmental model statistical moment method using Phoenix WinNonlin® 7.0 software was employed to calculate the following main pharmacokinetic parameters: Tmax, Cmax, AUC(0-t), T1/2, etc.
1) Take 30 µL of mixed standard curve samples, quality control samples, blank samples, zero concentration samples, and test samples. 2) For standard curve samples, quality control samples, zero concentration samples and test samples, add 300 µL of internal standard working solution (containing 100 ng/mL IS). For blank samples, ULOQ without IS samples (if necessary), add the same volume of acetonitrile. 3) Vortex mix for 1 minute 4) Centrifuge at 4°C for 7 minutes (18,000g) 5) Take 200 µL of the supernatant to the corresponding wells of a 96-well injection plate. 6) Inject 4µL of sample for LC-MS/MS analysis. Table 4 Pharmacokinetic data of compounds after oral administration in vivo

The conditions of data set [2]: clearance proportion.
For data set [3] the following is noted: clearance proportion. The source holds these as a separate data set.
In a further data set the target is T1, SARS-CoV-2 PL^Pro (Severe acute respiratory syndrome coronavirus 2, UniProt P0DTD1).
T1 construct: SARS-CoV-2 PL^Pro catalytic domain (746-1060); made in house
Description: biochemical. The conditions noted are these: SARS-CoV-2 PLPro catalytic domain (746-1060), 10 minutes pre-incubation; read-out: PLpro IC50.

For `Cc1ccc(N2CCN(C)CC2)cc1C(=O)NC1(c2ccc3c4c(cccc24)C(=O)N3C)CC1` [Compound P1, 2-Methyl-N-(1-(1-methyl-2-oxo-1,2-dihydrobenzo[cd]indol-6-yl)cyclopropyl)-5-(4-methylpiperazin-1-yl)benzamide], the EC50 with SARS-CoV-2 WT fell in the range of 0.1 to 1 µM. The EC50 with SARS-Cov-2 XBB.1 was 0.1 to 1 µM. For the same compound, the EC50 with SARS-Cov-2 Omicron BA.5 is 0.1 to 1 µM. Further, in data set [1], the AUC(0-t) was 3390 ng·h/mL, the concentration peaked (Cmax) at 393 ng/mL, the Tmax is 3 h and the half-life is 3 h. Further, in data set [2], the “Rat Eh (%)” value was found to be 37.3%. In data set [3], the “Human Eh (%)” value worked out at 77%.

As to `Cc1ccc(N2CC(N3CCC(C)(O)CC3)C2)cc1C(=O)NC1(c2ccc3c4c(cccc24)C(=O)N3C)CC1` [Compound P17, 5-(3-(4-Hydroxy-4-methylpiperidin-1-yl)azetidin-1-yl)-2-methyl-N-(1-(1-methyl-2-oxo-1,2-dihydrobenzo[cd]indol-6-yl)cyclopropyl)benzamide], the IC50 at SARS-CoV-2 PL^Pro is below 40 nM. The 50% effective concentration (EC50) in the data set with SARS-CoV-2 WT is below 0.04 µM; in the data set on SARS-Cov-2 XBB.1, 0.04 to 0.1 µM; in the data set on SARS-Cov-2 Omicron BA.5, 0.1 to 1 µM.
